# Results: US20120131849A1, “METHOD FOR STORAGE OF SEEDS” (priority 2009, published 2012)
# Test system: seeds of Eustoma grandiflorum “F1 Mellow Violet”
# Experiment: Germination rate test after storage of seeds in oily substance
# Format: in vivo
# Procedure: After a predetermined amount of culture soil (Metro-Mix350, manufactured by Scotts) was filled into a cell tray, 100 seeds were sown, and water sprinkling was performed as necessary. With regard to the light conditions, suitable conditions for each seed type were adopted. After sowing, the number of germinated seeds was measured over time, and the number of germinated seeds with respect to the 100 seeds was calculated as a germination rate (%).
# The germination rate (%) obtained 10 days after sowing was particularly evaluated as germination vigor (%). The germination vigor is a measure of germination speed or whether germination is uniform, and higher germination vigor values mean faster and more uniform germination. In the case of seeds of a plant that takes long time to germinate, the number of days after sowing was changed as appropriate to obtain the germination vigor.
# The germination rate (%) obtained 14 days after sowing was particularly evaluated as the final germination rate (%). In the case of seeds of a plant that takes long time to germinate, the number of days after sowing was changed as appropriate to obtain the final germination rate. […]
# First, 0.01 g of seeds of Eustoma grandiflorum “F1 Mellow Violet” was placed in each of 1.5 mL test tubes. Subsequently, 1.5 mL of a medium-chain triglyceride was gently poured into each test tube, which was then capped. The seeds were completely immersed in the medium-chain triglyceride. The test tubes were stored at 4° C. or 25° C. in darkness for 6 months, 18 months, or 36 months, and afterward, the seeds were removed from the test tubes, and a germination rate test was performed. A germination rate test for Eustoma grandiflorum “F1 Mellow Violet” seeds immediately after purchasing was also performed at the same time.
compound,measurement,setting,value
"CCCC(=O)O [Example 10, butanoic acid]",Germination rate (%) 10 days (germination vigor),"Stored at 4° C., 6 months",94%
same,Germination rate (%) 14 days (final germination rate),"Stored at 4° C., 6 months",94%
same,Germination rate (%) 10 days (germination vigor),"Stored at 4° C., 18 months",95%
same,Germination rate (%) 14 days (final germination rate),"Stored at 4° C., 18 months",95%
same,Germination rate (%) 10 days (germination vigor),"Stored at 4° C., 36 months",95%
same,Germination rate (%) 14 days (final germination rate),"Stored at 4° C., 36 months",96%
same,Germination rate (%) 10 days (germination vigor),"Stored at 25° C., 6 months",95%
same,Germination rate (%) 14 days (final germination rate),"Stored at 25° C., 6 months",96%
same,Germination rate (%) 10 days (germination vigor),"Stored at 25° C., 18 months",93%
same,Germination rate (%) 14 days (final germination rate),"Stored at 25° C., 18 months",96%
same,Germination rate (%) 10 days (germination vigor),"Stored at 25° C., 36 months",92%
same,Germination rate (%) 14 days (final germination rate),"Stored at 25° C., 36 months",95%
"CCCCCCCC(=O)O [Example 11, octanoic acid]",Germination rate (%) 10 days (germination vigor),"Stored at 4° C., 6 months",93%
same,Germination rate (%) 14 days (final germination rate),"Stored at 4° C., 6 months",93%
same,Germination rate (%) 10 days (germination vigor),"Stored at 4° C., 18 months",96%
same,Germination rate (%) 14 days (final germination rate),"Stored at 4° C., 18 months",96%
same,Germination rate (%) 10 days (germination vigor),"Stored at 4° C., 36 months",95%
same,Germination rate (%) 14 days (final germination rate),"Stored at 4° C., 36 months",95%
same,Germination rate (%) 10 days (germination vigor),"Stored at 25° C., 6 months",93%
same,Germination rate (%) 14 days (final germination rate),"Stored at 25° C., 6 months",93%
same,Germination rate (%) 10 days (germination vigor),"Stored at 25° C., 18 months",91%
same,Germination rate (%) 14 days (final germination rate),"Stored at 25° C., 18 months",93%
same,Germination rate (%) 10 days (germination vigor),"Stored at 25° C., 36 months",90%
same,Germination rate (%) 14 days (final germination rate),"Stored at 25° C., 36 months",93%
"CCCCCCCCCCCO [Example 17, undecyl alcohol]",Germination rate (%) 10 days (germination vigor),"Stored at 4° C., 6 months",94%
same,Germination rate (%) 14 days (final germination rate),"Stored at 4° C., 6 months",96%
same,Germination rate (%) 10 days (germination vigor),"Stored at 4° C., 18 months",94%
same,Germination rate (%) 14 days (final germination rate),"Stored at 4° C., 18 months",94%
same,Germination rate (%) 10 days (germination vigor),"Stored at 4° C., 36 months",90%
same,Germination rate (%) 14 days (final germination rate),"Stored at 4° C., 36 months",92%
same,Germination rate (%) 10 days (germination vigor),"Stored at 25° C., 6 months",94%
same,Germination rate (%) 14 days (final germination rate),"Stored at 25° C., 6 months",95%
same,Germination rate (%) 10 days (germination vigor),"Stored at 25° C., 18 months",95%
same,Germination rate (%) 14 days (final germination rate),"Stored at 25° C., 18 months",94%
same,Germination rate (%) 10 days (germination vigor),"Stored at 25° C., 36 months",89%
same,Germination rate (%) 14 days (final germination rate),"Stored at 25° C., 36 months",92%
